Here are results for eight molecules from article PMC4171606, “A novel copper(I) complex induces ER-stress-mediated apoptosis and sensitizes B-acute lymphoblastic leukemia cells to chemotherapeutic agents” (Oncotarget, 2014).

Like-named read-outs stand apart in the source and are kept apart here. Where only a bound is given, the exact number is not on record here.

Assay [1] concerns RS4;11 and SEM cells. Nature of the assay: MTT viability with CP in presence of pan-caspase inhibitor, 48 h. The assay is classed as cell-based, human. To be noted: z-VAD.fmk 100 μM with CP 2.5 μM and 5 μM. As to the method: FIGURE 2 CP induces caspase-dependent apoptosis without mitochondria involvement (A) Assessment of mitochondrial membrane potential (ΔΨmt) after treatment of RS4;11 and SEM cells with CP (2.5 μM) for the indicated times. Cells were stained with the fluorescent probe JC-1. Data are represented as mean ± S.E.M. of three independent experiments. (B) Flow cytometric analysis of RS4;11 and SEM cells treated with CP (2.5 μM) for 24 h showing cytochrome c labeled with a monoclonal antibody conjugated to FITC. Representative image of three experiments with similar results. (C) Cells were incubated with CP 2.5 μM and 5 μM in the presence or absence of the pan-caspase inhibitor z-VAD.fmk (100 μM). Cell viability was determined after 48 h by MTT assay. Data are represented as mean ± S.E.M. of three independent experiments performed in triplicate. *p<0.01 vs CP alone. (D) Western blot analysis of Bcl-2, cleaved caspase-12, caspase-9, cleaved caspase-7, caspase-3 and PARP after treatment of SEM and RS4;11 cells with CP (2.5 μM) for the indicated times. To confirm equal protein loading, each membrane was stripped and reprobed with anti-β-actin antibody.
We therefore evaluated whether the inhibition of caspases with the pan-caspase inhibitor z-VAD.fmk would prevent cell death.

The subject of a further assay is RS4;11 cells. Kind of assay: Combined drugs analysis, MTT 48 h, Chou and Talalay. To be noted: Homo sapiens. The assay is classed as cell-based. As to the method:
(§1) SEM and RS4;11 cell lines were exposed to dexamethasone (Dex), daunorubicine (Dauno), cytarabine (Ara-C) and vincristine (Vcr) in the presence or absence of CP, at fixed combination ratios.
(§2) To test potential synergistic, additive, or antagonistic effects of the combination of CP and drugs commonly used in B-ALL treatment, we performed MTT experiments as follows.
(§3) SEM, and RS4;11 cells were treated for 48 hours with one of the most used chemotherapeutic agents: cytarabine (Aractyn, Pfizer), daunorubicin (Pfizer), vincristine (Pfizer), or dexamethasone (Sigma-Aldrich). CP was also added to each drug solution, at fixed combination ratios. Cell viability was determined after 48 hours of treatment by MTT test as described above. To determine the synergistic, additive, or antagonistic effects of the drug combinations, we used CalcuSyn software (version 2.0, Biosoft, Cambridge, United Kingdom) based on the method of the combination index (CI) described by Chou and Talalay. Synergy, additivity and antagonism were defined by a CI<1, CI=1, or CI>1, respectively.

The subject of the next assay is SEM cells. Described as above. The assay is classed as cell-based. To be noted: Homo sapiens. The procedure: as §1, §2, §3
For assay [2], the system named is human leukemia cell lines. Nature of the assay: MTT growth inhibition, panel of twelve leukemia cell lines, 72 h. The format is cell-based. To be noted: all cell lines, same experimental conditions as CP, data not shown. As to the method: [Cu(thp)4][PF6] (CP) was evaluated for its growth inhibition activity on a panel of twelve different human leukemia cell lines (five B-acute lymphoblastic leukemia, three T-acute lymphoblastic leukemia, three acute myeloid leukemia and one chronic myeloid leukemia). Cells were treated for 72 h with CP and cell viability was evaluated by MTT test. […] This abnormal high expression of proteasomal proteins and mRNA seem to be correlated to the hyperproliferation of these cancer cells and to the sensitivity towards proteasome inhibitors.
The human leukemia cell lines RS 4;11, SEM, REH, RCH-ACV, MHH-CALL2, Jurkat, CCRF-CEM, HSB2, HL-60, K562, THP-1, MV4;11 were purchased from the American Type Culture Collection. Cells were cultured in RPMI 1640 (Life Technologies, Italy) supplemented with 10% fetal bovine serum (FBS), glutamine (2 mM; Life Technologies, Italy), penicillin (100 U/ml; Life Technologies, Italy) and streptomycin (100 μg/ml; Life Technologies, Italy), and maintained at 37°C in a humidified atmosphere with 5% CO2. The cytotoxic activity of CP was determined using a standard 3-[4,5-dimethylthiazol-2-yl]-2,5-diphenyltetrazodium bromide (MTT) based colorimetric assay (Sigma-Aldrich, Italy). Briefly, cells were seeded at a density of 2×10^4 cells/well in 96-well microtiter plates. After 24 h, cells were exposed to the test compound. After different times, cell survival was determined by the addition of an MTT solution as previously described.

In assay [3] the test system is RS4;11 and SEM cells. Nature of the assay: Annexin-V/PI assay with CP in presence of cycloheximide, 12 h. The assay is classed as cell-based, human. To be noted: CHX 2 μg/ml with CP 2.5 μM. The procedure: To investigate if proteasome inhibition and ER stress could be responsible for CP-induced cell death, we assayed apoptosis and ER stress markers in the presence of cycloheximide (CHX), an inhibitor of protein synthesis that antagonizes ER-stress agents. The inhibition of protein synthesis reduced the accumulation of unfolded proteins in the ER and therefore ER-stress induced apoptosis.
Furthermore, CHX induced a remarkable reduction of GRP78 and CHOP expression, induced after 12 h of treatment with CP, when CHOP and GRP78 were highly expressed (Figure 5, panel C).
FIGURE 5 CP induces ER stress mediated apoptosis SEM (A) and RS4;11 (B) cells were incubated with CP (2.5 μM) in the presence or absence of cycloheximide (CHX) for 12 h, at the concentration of 2 μg/ml. Cells were analyzed by flow cytometry after double staining with Annexin-V-FITC and PI. Data are represented as mean ± S.E.M of three independent experiments. *p<0.05. (B) Western blot analysis showing the expression of GRP78 and CHOP after treatment of RS4;11 and SEM cells with CP (2.5 μM) for 12 h in the presence or absence of CHX (2 μg/ml).

The mark [4] stands for this setting: RS4;11, 48 h, MTT, drug alone or with CP at fixed molar ratio, mean ± SE, read-out: GI50.
[5] abbreviates: SEM, MTT, drug alone or with CP at fixed molar ratio, mean ± SE, read-out: GI50.

Consider `CC(C)[C@H](NC(=O)OCc1ccccc1)C(=O)N[C@@H](C)C(=O)NC(CC(=O)O)C(=O)CF` (mixture of isomers) [z-VAD.fmk, N-[(benzyloxy)carbonyl]-L-Val-Ala-DL-Asp-fluoromethylketone], for which the “cell viability of CP-treated cells” value with RS4;11 and SEM cells [1] is given as “significantly increased cell viability”.

One may read the GI50 as the concentration that inhibits growth by half. Take `Nc1ccn([C@@H]2O[C@H](CO)[C@@H](O)[C@@H]2O)c(=O)n1` [AraC, cytarabine]: the 50% growth inhibitory concentration (GI50) with RS4;11 cells (setting [4]) worked out at 21 ± 7.1 nM; in the assay on SEM cells (setting [5]), 22.3 ± 1.8 nM.

Regarding `COc1cccc2c1C(=O)c1c(O)c3c(c(O)c1C2=O)C[C@@](O)(C(C)=O)C[C@@H]3O[C@H]1C[C@H](N)[C@H](O)[C@H](C)O1` [Dauno, daunorubicin], the GI50 in the assay on RS4;11 cells (RS4-11, 48 h) stood at 19.2 ± 1.9 nM; with SEM cells, 96 ± 14.1 nM.

`CC[C@]1(O)C[C@H]2CN(CCc3c([nH]c4ccccc34)[C@@](C(=O)OC)(c3cc4c(cc3OC)N(C=O)[C@H]3[C@@](O)(C(=O)OC)[C@H](OC(C)=O)[C@]5(CC)C=CCN6CC[C@]43[C@@H]65)C2)C1` [Vcr, vincristine]: the GI50 in the assay with RS4;11 cells (setting [4]) worked out at 0.071 ± 0.042 nM; with SEM cells (setting [5]), 13.1 ± 1.2 nM.

With `C[C@@H]1C[C@H]2[C@@H]3CCC4=CC(=O)C=C[C@]4(C)[C@@]3(F)[C@@H](O)C[C@]2(C)[C@@]1(O)C(=O)CO` [Dex, dexamethasone], the values for the GI50 with RS4;11 cells (setting [4]) and in the assay on SEM cells (setting [5]) were 0.12 ± 0.025 nM and 643 ± 44.2 nM, respectively.

As to `[Cl][Cu][Cl]` [CuCl2], in assay [2], the “concentration giving only a slight reduction of cell viability” value was above 250 µM.

For the molecule `C[C@@H]1C[C@@H]([C@H](O)CC2CC(=O)NC(=O)C2)C(=O)[C@@H](C)C1` [CHX, cycloheximide], the “protection from CP induced cell death” value in the assay on RS4;11 and SEM cells [3] is “significant protection from CP induced cell death”.

Consider `[Cl][Cu]` [CuCl], for which the “concentration giving only a slight reduction of cell viability” value in assay [2] was above 250 µM.
